The subject of test [1] is P. falciparum PanK. The experiment in a line: [14C]pantothenate phosphorylation assay with P. falciparum lysate. In kind it is biochemical, Plasmodium falciparum. Particulars: 100 µM pantothenamide, 0.2 µM [14C]pantothenate, 10 min. As for the experimental part: To assess the effect of the pantothenamides on pantothenate phosphorylation by P. falciparum PanK, the phosphorylation of [^14C]pantothenate by P. falciparum lysates was measured in the presence and absence of a single concentration of each pantothenamide. P. falciparum lysate was prepared from trophozoite stage parasites “isolated” from their host erythrocyte by treatment with 0.05% (w/v) saponin (essentially as described by Saliba et al.), and washed (five times) in HEPES-buffered saline (125 mM NaCl, 5 mM KCl, 20 mM D-glucose, 25 mM HEPES, 1 mM MgCl2, pH 7.1). Lysates were prepared as described by van Schalkwyk et al., except that 10 mM potassium phosphate, pH 7.4 (rather than 10 mM Tris, pH 7.4), was used to lyse the cells. Aliquots of lysate were stored at −20°C. The concentration of cell lysates was determined from cell counts made using an improved Neubauer hemocytometer.
[^14C]Pantothenate phosphorylation was assayed using the Somogyi reagent essentially as described by Saliba et al., except that pantothenate phosphorylation was terminated by heat denaturation (rather than acid denaturation) of the protein in reaction aliquots. Briefly, P. falciparum lysate was added to solutions (at 37°C) of 50 mM Tris, 5 mM ATP, 5 mM MgCl2, at pH 7.4, containing [^14C]pantothenate (at a final concentration of 0.01 µCi/mL, or 0.2 µM), and a pantothenamide (at a final concentration of 100 µM) or an equivalent volume of solvent. Typically, lysate prepared from 5.4–6.5×10^7 parasites was present in each mL of reaction solution. Zero phosphorylation control reactions were prepared by adding a corresponding volume of 10 mM potassium phosphate instead of parasite lysate. Following a ten minute incubation at 37°C (a period during which pantothenate phosphorylation increased linearly with time in the absence of inhibitors) 200 µL aliquots of the [^14C]pantothenate phosphorylation reactions were transferred in duplicate to microcentrifuge tubes, and immediately incubated at 95°C for 10 min to terminate phosphorylation. Terminated reaction samples were centrifuged at 15 800×g for 10 min to pellet the denatured protein, before two aliquots of each supernatant (typically 80 µL) were transferred to new microcentrifuge tubes. To one aliquot, 500 µL Somogyi reagent was added, and to the other, 500 µL water was added. The samples were processed for determination of phosphorylated [^14C]pantothenate as described previously.

Test [2] relates to erythrocytic stage P. falciparum parasites (strain 3D7). The experiment in a line: SYBR Green I-based in vitro growth assay (96 h). Particulars: for IC50: 1 µM pantothenate, 96 h; for effect on parasite growth in fresh Albumax-complete RPMI: fresh medium, up to 200 µM (highest concentration tested). It is filed as cell-based, Plasmodium falciparum. Here is the method:
Erythrocytic stage P. falciparum parasites (strain 3D7) were maintained within human erythrocytes in continuous culture essentially as described previously, [25]. P. falciparum-infected erythrocytes were routinely cultured in RPMI 1640 medium supplemented with 25 mM HEPES, 20 mM D-glucose, 200 µM hypoxanthine, 24 mg/L gentamycin and Albumax II (0.6%, w/v), which, hereafter is referred to as Albumax-complete RPMI. For several days prior to carrying out the assays testing the effect of compounds on the growth of P. falciparum in medium supplemented with human serum (instead of Albumax II), the parasites were cultured in the same medium mentioned above, except that human serum (10%, v/v, pooled from different blood donors) was used rather than Albumax II. This medium is hereafter referred to as human serum-complete RPMI.
The in vitro antiplasmodial activity of test compounds was determined using the malaria SYBR Green I-based fluorescence assay described by Smilkstein et al., with minor modifications. Briefly, P. falciparum-infected erythrocytes were incubated in culture medium containing two-fold dilutions of the test compounds in 96-well microtiter plates. Assays were initiated with ring-stage P. falciparum-infected erythrocytes at a hematocrit and parasitemia of 1%. Wells containing infected erythrocytes in the presence of chloroquine (0.25–2 µM) served as zero growth controls and wells containing infected erythrocytes in the absence of chloroquine or test compounds served as 100% parasite growth controls. Plates were incubated at 37°C under an atmosphere of 96% nitrogen, 3% carbon dioxide and 1% oxygen for 96 h, before 100 µL from each well was mixed with 100 µL of SYBR Safe DNA gel stain (0.2 µL/mL) in 20 mM Tris, pH 7.5, 5 mM ethylenediaminetetraacetic acid (EDTA), 0.008% (w/v) saponin, 0.08% (v/v) Triton X-100, in a second 96-well microtitre plate. Fluorescence was measured using a FLUOstar OPTIMA multidetection microplate reader from BMG LABTECH with excitation and emission wavelengths of 490 and 520 nm, respectively. The 50% inhibitory concentration (IC50) of each test compound under each test condition was calculated by fitting the data to a sigmoidal curve (typically y = a/(1+ (x/x0)^b) using nonlinear least squares regression (SigmaPlot, Systat Software) and averaging the IC50 estimates from independent experiments.
The antiplasmodial activity of test compounds was assessed in media that had been subjected to different pre-incubations. “Fresh” medium refers to medium that was stored for a maximum of 48 h at 4°C, and incubated at 37°C for a maximum of 1 h, prior to use. “Aged” medium refers to medium that was stored for a minimum of one week at 4°C and incubated intermittently at 37°C, or medium incubated continuously at 37°C for 40 h soon after preparation. As indicated at the relevant positions within the “Results” section, for some experiments the fresh medium used was, more specifically, medium used immediately following preparation, and the aged medium used was, more specifically, medium that was incubated at 37°C for 40 h immediately prior to use.

Where [3] appears, read: Plasmodium falciparum, 3D7, 96 h, fresh Albumax-complete RPMI, read-out: IC50 against P. falciparum, fresh medium, 1 μM pantothenate.
[4] abbreviates: Plasmodium falciparum, 3D7, aged Albumax-complete RPMI (37°C for 40 h), read-out: IC50 against P. falciparum, aged medium, 1 μM pantothenate.
[5] abbreviates: fresh Albumax-complete RPMI, IC50 at 100 µM pantothenate / IC50 at 1 µM pantothenate.

Each structure is given as a SMILES string. Like-named read-outs stand apart in the source and are kept apart here.

In the case of `CCCCCNC(=O)CCNC(=O)[C@H](O)C(C)(C)CO` [Compound 1], in test [1], the “Inhibition of pantothenate phosphorylation at 100 μM” value (“Inhibition … at 100 μM” below) is on record as 99 ± 1%. The figures for the half-inhibitory concentration (IC50) in test [2] (setting [3]) and in test [2] (setting [4]) were 124 ± 15 µM and 2 ± 0.2 µM, respectively.

Turning to `CCCCCCCNC(=O)CCNC(=O)[C@H](O)C(C)(C)CO` [Compound 2], the “Inhibition … at 100 μM” value in test [1] came out at 99 ± 1%. In addition, the half-inhibitory concentration (IC50) in test [2] (setting [3]) is above 200 µM.

Regarding `CC(C)(CO)[C@@H](O)C(=O)NCCC(=O)NCCc1ccccc1` [Compound 3], the “Inhibition … at 100 μM” value in test [1] turned out to be 100%. In addition, the IC50 in test [2] (Plasmodium falciparum, 3D7, 96 h, aged Albumax-complete RPMI, read-out: IC50 against P. falciparum in aged medium) is 0.02 ± 0.002 µM.

`COc1ccc(CCNC(=O)CCNC(=O)[C@H](O)C(C)(C)CO)cc1OC` [Compound 4]: in test [1], the “Inhibition … at 100 μM” value stood at 100%. The IC50 in test [2] (setting [3]) and in test [2] (setting [4]) was above 200 µM each time.

For `CC(CCc1ccccc1)NC(=O)CCNC(=O)[C@H](O)C(C)(C)CO` (some centres unmarked) [Compound 5], the “Inhibition … at 100 μM” value in test [1] is listed as 94 ± 3%. In addition, the IC50 in test [2] (setting [3]) and in test [2] (setting [4]) was above 200 µM each time.

In the case of `COc1cc(CNC(=O)CCNC(=O)[C@H](O)C(C)(C)CO)cc(OC)c1OC` [Compound 6], the “Inhibition … at 100 μM” value in test [1] was 96 ± 2%. In addition, the half-inhibitory concentration (IC50) in test [2] (setting [3]) and in test [2] (setting [4]) was above 200 µM throughout.

With `CC(C)(CO)[C@@H](O)C(=O)NCCC(=O)N1CCN(Cc2ccccc2)CC1` [Compound 7], in test [1], the “Inhibition … at 100 μM” value was determined as 98 ± 2%. Further, the half-inhibitory concentration (IC50) in test [2] (setting [3]) and in test [2] (setting [4]) was above 200 µM each time.

Take `CC(C)(CO)[C@@H](O)C(=O)NCCC(=O)NCCN1CCOCC1` [Compound 8]: the “Inhibition … at 100 μM” value in test [1] is listed as 94 ± 5%. Besides, the IC50 in test [2] (setting [3]) and in test [2] (setting [4]) was above 200 µM throughout.

`COc1ccc(CNC(=O)CCNC(=O)[C@H](O)C(C)(C)CO)cc1` [Compound 9]: the “Inhibition … at 100 μM” value in test [1] stood at 99 ± 1%. Besides, the IC50 in test [2] (setting [3]) was above 200 µM.

In the case of `CC1C(NC(=O)CCNC(=O)C(O)C(C)(C)CO)CC2CC1C2(C)C` (centres unmarked) [Compound 10], in test [1], the “Inhibition … at 100 μM” value came to 100%. For the same compound, the IC50 in test [2] (setting [3]) and in test [2] (setting [4]) was above 200 µM in each case.

On to `CCCNC(=O)CCNC(=O)[C@H](O)C(C)(C)CO` [Compound 11], for which the “Inhibition … at 100 μM” value in test [1] came to 100%. Also, the concentration for half-maximal inhibition (IC50) came out at 134 ± 22 µM in test [2] (setting [3]) and 0.34 ± 0.01 µM in test [2] (setting [4]).

Turning to `CC(C)=CCC/C(C)=C/CNC(=O)CCNC(=O)[C@H](O)C(C)(C)CO` [Compound 13], the “Inhibition … at 100 μM” value in test [1] is given as 100%. Moreover, the IC50 in test [2] (setting [3]) was 66 ± 4 µM; in test [2] (setting [4]), 150 ± 5 µM. Further, the “fold-increase in IC50 following supplementation with 100 µM pantothenate, fresh medium” value in test [2] (setting [5]) stood at 1±0.1 times.

With `CSCCNC(=O)CCNC(=O)[C@H](O)C(C)(C)CO` [Compound 14], the “Inhibition … at 100 μM” value in test [1] worked out at 100%. Also, the 50% inhibitory concentration (IC50) in test [2] (setting [3]) and in test [2] (setting [4]) was above 200 µM throughout. Moreover, in test [2], the “effect on parasite growth in fresh Albumax-complete RPMI” value (“effect on parasite growth” below) was “little effect”.

As for `COCCNC(=O)CCNC(=O)[C@H](O)C(C)(C)CO` [Compound 15], the “Inhibition … at 100 μM” value in test [1] amounted to 100%. Also, the 50% inhibitory concentration (IC50) in test [2] (setting [3]) and in test [2] (setting [4]) was above 200 µM each time. Moreover, the “effect on parasite growth” value in test [2] is “lacked antiplasmodial activity”.

Consider `CC(C)(CO)[C@@H](O)C(=O)NCCC(=O)NCCO` [Compound 16], for which the “Inhibition … at 100 μM” value in test [1] was 100%. For the same compound, in test [2] (setting [3]), the half-inhibitory concentration (IC50) was above 200 µM. The “effect on parasite growth” value in test [2] is reported as “without effect”.

As to `CCSCCNC(=O)CCNC(=O)[C@H](O)C(C)(C)CO` [Compound 17], the “Inhibition … at 100 μM” value in test [1] is on record as 95 ± 5%. Also, the IC50 turned out to be 44 ± 5 µM in test [2] (setting [3]) and 0.067 ± 0.002 µM in test [2] (setting [4]).

In the case of `CSCCCNC(=O)CCNC(=O)[C@H](O)C(C)(C)CO` [Compound 18], the “Inhibition … at 100 μM” value in test [1] is recorded as 98 ± 2%. Besides, the values for the IC50 in test [2] (setting [3]) and in test [2] (setting [4]) were 76 ± 12 µM and 0.23 ± 0.06 µM, respectively.

For `CCOCCCNC(=O)CCNC(=O)[C@H](O)C(C)(C)CO` [Compound 19], the “Inhibition … at 100 μM” value in test [1] turned out to be 96 ± 4%. The results for the IC50 in test [2] (setting [3]) and in test [2] (setting [4]) were 49 ± 8 µM and 0.27 ± 0.06 µM, respectively. The “fold-increase in IC50 following supplementation with 100 µM pantothenate, aged medium” value in test [2] (aged Albumax-complete RPMI, IC50 at 100 µM pantothenate / IC50 at 1 µM pantothenate) was found to be 24±1 times. Further, the “fold-increase in IC50 following supplementation with 100 µM pantothenate, fresh medium” value in test [2] (setting [5]) is reported as 1.7±0.4 times.

Turning to `CC(C)(CO)[C@@H](O)C(=O)NCCC(=O)NCCCO` [Compound 20], the “Inhibition … at 100 μM” value in test [1] is recorded as 94 ± 6%. In test [2] (setting [3]), the IC50 was above 200 µM. Moreover, in test [2], the “effect on parasite growth” value was “without effect”.

`COCCCNC(=O)CCNC(=O)[C@H](O)C(C)(C)CO` [Compound 21]: the “Inhibition … at 100 μM” value in test [1] turned out to be 98 ± 2%. The IC50 in test [2] (setting [3]) was 166 ± 18 µM; in test [2] (setting [4]) it was 1.9 ± 0.5 µM.

Take `CCOCCNC(=O)CCNC(=O)[C@H](O)C(C)(C)CO` [Compound 22]: in test [1], the “Inhibition … at 100 μM” value amounted to 100%. The 50% inhibitory concentration (IC50) in test [2] (setting [3]) worked out at 162 ± 20 µM; in test [2] (setting [4]), 1.4 ± 0.1 µM.

Consider `CC(C)(CO)[C@@H](O)C(=O)NCCCO` [pantothenol, reference compound], for which the inhibition at 2000 µM in test [2] (Plasmodium falciparum, 3D7, 2 mM, Albumax-complete RPMI supplemented with 100 µM pantothenate, fresh and aged, read-out: inhibition of growth at highest concentration tested with 100 µM pantothenate) is below 50%. Moreover, the “effect of additional Albumax II on activity in aged medium” value in test [2] (aged medium + additional Albumax II (0.6%, w/v)) is given as “unaffected”. Further, in test [2] (aged vs fresh medium, P = 0.32), the “activity in aged versus fresh Albumax-complete RPMI” value is “comparable in aged and fresh medium”.

The IC50 is the concentration that inhibits the measured activity by half.

(Values after publication PMC3566143, “Pantothenamides Are Potent, On-Target Inhibitors of Plasmodium falciparum Growth When Serum Pantetheinase Is Inactivated” (PLoS ONE, 2013).)
